According to patent publication US5607926A, “Cephalosporin antibiotics” (Microcide Pharmaceuticals, Inc., priority 1995, dated 1997):
Values after ≈ are worked out from the molar mass of the structure shown. Counter-ions that a name gives are not always drawn. Like-named read-outs stand apart in the source and are kept apart here.

Tests used:
E. faecium ATCC 35667 = experiment: In vitro antibacterial evaluation, MIC by agar dilution, E. faecium ATCC 35667; assay type: cell-based; details: Enterococcus faecium, ATCC35667, read-out: MIC
Outline: (§1)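 Log-phase cultures (4-6 h broth growth) are adjusted to 0.5 McFarland and diluted to give roughly 10^4 cfu per 1 μL spot. Spots go onto Mueller-Hinton agar containing test compound in two-fold dilutions (128 to ≤0.25 μg/mL), then plates incubate 16-20 hours at 35°-36° C before MIC reading.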

S. haemolyticus (Meth^R) = experiment: In vitro antibacterial evaluation, MIC by agar dilution, S. haemolyticus; assay type: cell-based; details: Staphylococcus haemolyticus, read-out: MIC
Outline: as §1

[1] = tested on: S. aureus 76 (Meth^R)(lac^+); experiment: In vitro antibacterial evaluation, MIC by agar dilution, S. aureus 76; assay type: cell-based; details: Staphylococcus aureus, read-out: MIC
Outline: as §1

S. aureus ATCC 25923 = experiment: In vitro antibacterial evaluation, MIC by agar dilution, S. aureus ATCC 25923; assay type: cell-based; details: Staphylococcus aureus, ATCC25923
Outline: as §1

[2] = tested on: S. aureus Col8A (Meth^S)(lac^-); experiment: In vitro antibacterial evaluation, MIC by agar dilution, S. aureus Col8A; assay type: cell-based; details: Staphylococcus aureus
Outline: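 Log-phase isolates were spot-inoculated at about 10^4 cfu onto Mueller-Hinton agar carrying duplicate two-fold compound levels, 128 μg/mL to ≤0.25 μg/mL, following NCCLS (1991). Plates were read after 16-20 h at 35°-36° C. The lowest growth-inhibiting concentration gave the MIC (μg/ml).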

P. aeruginosa ATCC 27853 = experiment: In vitro antibacterial evaluation, MIC by agar dilution, P. aeruginosa ATCC 27853; assay type: cell-based; details: Pseudomonas aeruginosa, ATCC27853, read-out: MIC
Outline: as §1

E. faecalis ATCC 29212 = experiment: In vitro antibacterial evaluation, MIC by agar dilution, E. faecalis ATCC 29212; assay type: cell-based; details: Enterococcus faecalis, ATCC29212
Outline: as §1

[3] = tested on: S. epidermidis ATCC 31432; experiment: In vitro antibacterial evaluation, MIC by agar dilution, S. epidermidis ATCC 31432; assay type: cell-based; details: Staphylococcus epidermidis, ATCC31432
Outline: as §1

S. aureus ATCC 29213 = experiment: In vitro antibacterial evaluation, MIC by agar dilution, S. aureus ATCC 29213; assay type: cell-based; details: Staphylococcus aureus, ATCC29213
Outline: as §1

E. coli ATCC 25922 = experiment: In vitro antibacterial evaluation, MIC by agar dilution, E. coli ATCC 25922; assay type: cell-based; details: Escherichia coli, ATCC25922, read-out: MIC
Outline: as §1

[4] = tested on: methicillinsusceptible S. aureus strain ATCC 13709; experiment: In vivo antibacterial evaluation, murine model for lethal bacteremic peritonitis; parameters: species or system S. aureus in female Swiss-Webster mice; details: Staphylococcus aureus, ATCC13709, sc, 72 h, two equal SC doses at challenge and 2 hours later, mice, probit, read-out: ED50
Procedure: Groups of 5 female Swiss-Webster mice (Simonsen, Gilroy, Calif.) each are challenged by the intraperitoneal (IP) route with ten-fold increments of a bacterial inoculum. This permits calculation of the mean lethal dose (LD50) and the LD100. For preliminary evaluation of a new antibiotic, mice are challenged IP with an LD100 titer of bacteria. In two equal doses administered at the time of bacterial challenge and 2 hours later, groups of 10 mice each are treated subcutaneously with two-fold increments of the test drug and an antibiotic of known efficacy in mice and humans (i.e., positive control). Mice are observed for 72 h. Those alive at 72 h are considered long term survivors. The total drug dose in mg/kg that protects 50% of mice in a group from death is termed the mean protective dose (PD50). PD50 s are similarly determined for several pathogens. The quantitative endpoints for the new drug are then compared with those obtained with reference antibiotics.
Six ten-fold dilutions of inoculum suspended in 0.5 mL of sterilized 7% hog gastric mucin (Sigma) are injected IP in groups of 5 mice each. A control group of 5 mice receive mucin alone. Mice are observed for 72 h. Those alive at 72 h are considered long term survivors. The mean lethal dose (LD50) and 100% lethal dose (LD100) are determined by the probit test.
For antibiotic efficacy studies, mice are challenged IP with bacterial titers that will afford an LD100 for the test strain. In two equal doses administered at the time of bacterial challenge and 2 hours later, groups of 10 mice each are treated by the subcutaneous route (SC) with twofold increments of the test antibiotic; another group is treated similarly with a reference antibiotic of known efficacy in animals and man. Drug doses can range from 0.01 to 512 mg/kg. If the drug is poorly soluble, Tween 20 or propylene glycol will be employed to solubilize the drug. Animals are observed for 72 h. The 50% protective dose (PD50) is calculated in mg/kg by the probit method. The PD50 is the same as the 50% effective dose (ED50) and the 50% curative dose (CD50). Samples of blood from the hearts of all animals that die and from half the mice that survive are cultured on brain-heart infusion agar. Animals that received a protective dosage of the test drug will be alive at 72 h, although they may appear moderately ill to very ill during the observation period. […] Most of these mice will die within 6 to 48 h. Those alive at 72 h will be considered long term survivors.
data reported for challenge with methicillinsusceptible S. aureus strain

[5] = E. faecalis ATCC 29212, read-out: MIC
[6] = S. aureus ATCC 29213, read-out: MIC

SMILES | MIC (E. faecium ATCC 35667) [µg/mL] | MIC (S. haemolyticus (Meth^R)) [µg/mL] | MIC [1] [µg/mL] | MIC (S. aureus ATCC 25923) [µg/mL] | MIC [2] [µg/mL] | MIC (P. aeruginosa ATCC 27853) [µg/mL] | MIC (E. faecalis ATCC 29212; [5]) [µg/mL] | MIC [3] [µg/mL] | MIC (S. aureus ATCC 29213) [µg/mL] | MIC (E. coli ATCC 25922) [µg/mL] | MIC (S. aureus ATCC 25923; S. aureus ATCC 25923, read-out: MIC) [µg/mL] | MIC ([3]; S. epidermidis ATCC 31432, read-out: MIC) [µg/mL] | MIC (S. aureus ATCC 29213; [6]) [µg/mL] | MIC (E. faecalis ATCC 29212) [µg/mL] | ED50 [4] [mg/kg]
CCN=C(NCC)SCc1ccccc1SC1=C(C(=O)O)N2C(=O)[C@@H](NC(=O)Cc3ccccc3)[C@H]2SC1 [Cmpd 74, (7R)-7-[(Phenylacetyl)amino]-3-(2-N,N'-diethylisothiouroniummethylphenylthio)-3-cephem-4-carboxylate, inner salt] | 2 | > 32 | 32 | < 0.25 | < 0.25 | > 32 | 1 | < 0.25 | < 0.25 | > 32 | – | – | – | – | –
O=C(Cc1ccccc1)N[C@@H]1C(=O)N2C(C(=O)O)=C(Sc3ccccc3CSc3ncccn3)CS[C@H]12 [Cmpd 75] | 2 (≈ 3.63 µM) | > 32 | 32 (≈ 58.1 µM) | < 0.25 | < 0.25 | > 32 | 1 (≈ 1.82 µM) | < 0.25 | < 0.25 | > 32 | – | – | – | – | –
CNC(=N)SCc1ccccc1SC1=C(C(=O)O)N2C(=O)[C@@H](NC(=O)Cc3ccccc3)[C@H]2SC1 [Cmpd 76, (7R)-7-[(Phenylacetyl)amino]-3-(2-N-methylisothiouroniummethylphenylthio)-3-cephem-4-carboxylate, inner salt] | 2 | 32 | 8 | < 0.25 | < 0.25 | > 32 | 1 | < 0.25 | < 0.25 | > 32 | – | – | – | – | –
Cc1nnc(SCc2ccccc2SC2=C(C(=O)O)N3C(=O)[C@@H](NC(=O)Cc4ccccc4)[C@H]3SC2)s1 [Cmpd 77] | 2 (≈ 3.5 µM) | > 32 | 32 (≈ 56.1 µM) | < 0.25 | < 0.25 | > 32 | 1 (≈ 1.75 µM) | < 0.25 | < 0.25 | > 32 | – | – | – | – | –
N#CCC(=O)N[C@@H]1C(=O)N2C(C(=O)O)=C(Sc3cccnc3-c3ccccc3)CS[C@H]12 [Cmpd 85, (7R)-7-[(Cyanoacetyl)amino]-3-(2-phenylpyridin-3-ylthio)-3-cephem-4-carboxylic acid] | 2 (≈ 4.42 µM) | 16 (≈ 35.4 µM) | 16 (≈ 35.4 µM) | < 0.25 | < 0.25 | > 32 | 4 (≈ 8.84 µM) | < 0.25 | < 0.25 | > 32 | – | – | – | – | –
Nc1nc(/C(=N/OCCF)C(=O)N[C@@H]2C(=O)N3C(C(=O)O)=C(Sc4ccnn4-c4ccccc4)CS[C@H]23)cs1 [Cmpd 90, (7R)-7-[(Z)-2-(aminothiazol-4-yl)-2-(2-fluoroethyloxyimino)acetamido]-3-(1-N-phenylpyrazol-5-ylthio)-3-cephem-4-carboxylic acid] | 16 (≈ 27.1 µM) | 32 (≈ 54.3 µM) | 16 (≈ 27.1 µM) | – | 1 (≈ 1.7 µM) | 16 (≈ 27.1 µM) | 32 (≈ 54.3 µM) | – | – | 4 (≈ 6.78 µM) | 0.5 (≈ 0.848 µM) | < 0.25 | 1 (≈ 1.7 µM) | – | –
Nc1nc(-c2ccccc2)c(SC2=C(C(=O)O)N3C(=O)[C@@H](NC(=O)Cc4ccccc4)[C@H]3SC2)s1 [Cmpd 92, (7R)-7-[(Phenylacetyl)amino]-3-(2-amino-4-phenyl-thiazol-5-ylthio)-3-cephem-4-carboxylic acid] | 16 (≈ 30.5 µM) | 8 (≈ 15.2 µM) | 16 (≈ 30.5 µM) | < 0.25 | < 0.25 | > 32 | 16 (≈ 30.5 µM) | < 0.25 | < 0.25 | > 32 | – | – | – | – | –
O=C(Cc1ccccc1)N[C@@H]1C(=O)N2C(C(=O)O)=C(Sc3snnc3-c3ccccc3)CS[C@H]12 [Cmpd 93, (7R)-7-[(Phenylacetyl)amino]-3-(4-phenyl-1,2,3-thiadiazol-5-ylthio)-3-cephem-4-carboxylic acid] | 0.5 (≈ 0.979 µM) | 8 (≈ 15.7 µM) | 8 (≈ 15.7 µM) | < 0.25 | < 0.25 | > 32 | – | < 0.25 | < 0.25 | > 32 | – | – | – | < 0.25 | –
CC(C)N=C(NC(C)C)SCC(=O)N[C@@H]1C(=O)N2C(C(=O)O)=C(Sc3ccccc3CSC(=N)N)CS[C@H]12 [Cmpd 125, (7R)-7-[((N,N'-diisopropylisothiouronium)acetyl)amino]-3-(2-isothiouroniummethylphenylthio)-3-cephem-4-carboxylate, trifluoroacetic acid salt] | 2 | 8 | 8 | – | 0.5 | > 32 | 0.25 | – | – | > 32 | – | – | 0.5 | – | > 10
CSCC(=O)N[C@@H]1C(=O)N2C(C(=O)O)=C(Sc3ccccc3CSC(=N)N)CS[C@H]12 [Cmpd 127, (7R)-7-[(methylthioacetyl)amino]-3-(2-isothiouroniummethylphenylthio)-3-cephem-4-carboxylate, inner salt] | 1 | – | 8 | – | ≤ 0.06 | > 32 | 1 | – | – | > 32 | – | – | ≤ 0.06 | – | 0.59
